From patent US20030059511A1, “Sweetener compositions and uses thereof” (AJINOMOTO CO., INC., priority 1999, published 2003)

Columns and labels:
[1] = Measurement of the magnification of sweetness intensity in aqueous solution (sensory evaluation against sucrose solutions); type: in vivo, human; settings: aqueous solution
Description: (§1) An aqueous solution was prepared by diluting derivative 2 to be PSE 10% concentration (15.5 mg/1000 ml=10/6500 g/100 ml), assuming that the intensity of sweetness of derivative 2 was 6500 times that of sucrose. Separately, aqueous sucrose solutions having sucrose concentrations of (a)6.94%, (b)8.33%, (c)10%, (d)12%, and (e)14.4% were prepared. The sensory evaluation was performed by determining which sucrose solution was closest to the solution of derivative 2 in the sweetness intensity. The result of calculation of the average of points of 20 panelists was 2.25 point.
(§2) The intensity of sweetness of the solution of derivative 2 was 8.75% according to the following equation: (10.0−8.33)×0.25+8.33=8.75. Accordingly, the intense sweetness of derivative 2 was 5600 (=8.75/0.00155) times that of sucrose. According to the same experiment, the intensity of sweetness of derivative 1 was 22600 times that of sucrose. Furthermore, the magnification of sweetness intensity of other derivatives (3 to 9) can be determined by the same method.
as §2, with “intensity of” for “intense”
as §1, with “intense” for “intensity of”
The sweetness intensity of the solution of derivative 2 was 8.75% according to the following equation: (10.0−8.33)×0.25+8.33=8.75. Therefore, the magnification of sweetness intensity of derivative 2 was 5600 (=8.75/0.00155) times that of sucrose. When the same experiment was performed, the magnification of sweetness intensity of derivative 1 was 22600 times that of sucrose.

[2] = Magnification of sweetness intensity in the cola drink (sensory evaluation against sucrose cola drinks); type: in vivo, human
Source text: And the magnification of sweetness intensity in the cola drink can be also determined by the same method compared to the control solution of cola drink containing 10% sucrose.
The composition of cola drink is as follows.
As for the concentration of the references, the sucrose concentrations of previous (a) to (e) were used. In consequence, the magnification of sweetness intensity in the cola drink of derivative 1 was 22600 times, and that of derivative 2 was 4900 times.
And the magnification of sweetness intensity in the cola drink can be also determined by the same method compared to the reference solution of cola drink containing 10% sucrose.
The components of cola drink is as follows.
As for the concentration of the references, the sucrose concentrations of previous (a) to (e) were used. As the results, the magnification of sweetness intensity in the cola drink of derivative 1 was 22600 times, and that of derivative 2 was 4900 times.
And the magnification of sweetness in the cola drink can be also determined by the same method compared to the control solution of cola drink containing 10% sucrose.
As for the concentration of the references, the sucrose concentrations of previous (a) to (e) were used. As a result, the magnification of sweetness intensity in the cola drink of derivative 1 was 22600 times, and that of derivative 2 was 4900 times.

[3] = Taste characteristics in an aqueous solution (9 items, similarity index vs aqueous 10% sucrose solution); type: in vivo, human; settings: PSE 10%, smaller = closer to sucrose, 8 panelists
Description: The following experiments were performed using the water obtained by ion exchanging and further distilling the water.
An aqueous solution of each of derivatives 1 to 9 having a sweetness level equivalent to that of PSE 10% was prepared, and compared with aqueous 10% sucrose solution with respect to the following 9 items, i.e., “onset of the taste”, “round taste”, “clear taste”, “lingering taste”, “peculiar taste”, “heavy taste”, “bitter taste”, “astringent taste” and “irritation”. The results were determined as 5 levels (−2 point: very weak, −1 point: a little weak, 0 point: same, +1 point: a little strong, +2 point: very strong) by 8 panelists, and the average points were calculated. The sample solutions of the derivatives equivalent to PSE 10%, were prepared by using the magnification of sweetness intensity measured in Example 1, and the amounts of each derivatives to be used were as follows.
Next, the total of the absolute value of the deviation from sucrose in each of the evaluation items consisting of the onset of the taste, the round taste, the clear taste, the lingering taste, the peculiar taste, the heavy taste, the bitter taste, the astringent taste and the irritation was divided by 9 (total number of items) to calculate the similarity (which is referred to as “similarity index”). The smaller the similarity index becomes, the better the taste balances, and the closer the taste is to the taste characteristics (quality) of sucrose. The total taste becomes preferable. The similarity indexes of each derivatives are shown as follows.
To the aqueous solution of derivative 1 having a sweetness level equivalent to that of PSE 10%, salt was added as final concentratins of 0.1%, 0.2% and 0.5% to compare with the aqueous solution of 10% sucrose for by 2 points comparison method (n=8) and evaluate the characteristics of the taste.
The sensory evaluation was performed by the same way as Example 6.
The following experiments were conducted using the water obtained by ion exchanging and further distilling tap water.
An aqueous solution of each of derivatives 1 to 9 having a sweetness level equivalent to that of PES 10% was prepared, and compared with aqueous 10% sucrose solution with respect to 9 items, namely, “the onset of the taste”, “round taste”, “clear taste”, “lingering taste”, “peculiar taste”, “heavy taste”, “bitter taste”, “astringent taste” and “irritation”. The results were determined as 5 levels (−2 point: very weak, −1 point: a little weak, 0 point: same, +1 point: a little strong, +2 point: very strong) by 8 panelists, and the average points were calculated.
Next, the total of the absolute value of the deviation from sucrose in each of the evaluation items consisting of onset of the taste, round taste, clear taste, lingering taste, peculiar taste, heavy taste, bitter taste, astringent taste and irritation was divided by 9 (total number of items) to calculate the similarity (which is refer to as “similarity index”). The smaller the similarity index becomes, the better the taste balances, and the closer the taste is to the taste characteristics (quality) of sucrose. The total taste becomes preferable. The similarity indexes of each of the derivatives are shown as follows.

[4] = Taste characteristics in a cola drink (9 items, similarity index vs cola drink containing 10% sucrose); type: in vivo, human; settings: non-carbonated cola drink, PSE 10%, vs cola drink with 10% sucrose; smaller = closer to sucrose; 8 panelists
Description: The following experiments were performed in the same way as that of Example 2. Instead of aqueous solution, the cola drink of each of derivatives 1 to 9 having a sweetness level equivalent to that of PSE 10% was prepared, and compared with the cola drink containing 10% sucrose. The evaluation method and so on were same as that of Example 2.
When carbon dioxide is blown in the cola drink, the carbonated cola drink is prepared, however, the taste of the cola drink can be compared more easily in that without carbon dioxide. Thus the sensory evaluation of non-carbonated cola drink was performed.
The composition of the cola drink employed was same as that of Example 1.
(§3) The similarity indexes were calculated as those of aqueous solutions. The smaller the similarity index becomes, the better the taste balances, and the closer the taste is to the taste characteristics (quality) of sucrose. The total taste becomes preferable. The similarity indexes of each derivatives are shown as follows. […]
The following experiments were conducted in the same way as that of Example 15. Instead of aqueous solution, the cola drink of each of derivatives 1 to 9 having a sweetness level equivalent to that of PSE 10% was prepared, and compared with the cola drink containing 10% sucrose. All of the evaluation method and so on were same as those of Example 15.
When carbon dioxide is blown in the cola drink, the carbonated cola drink is prepared, however, the taste of the cola drink can be compared more easily in that without carbon dioxide. Thus the non-carbonated cola drink was organoleptically evaluated.
The composition of the cola drink employed was same as that of Example 14.
as §3, with “(quality)of” for “(quality) of”, “each of the” for “each”

[5] = Equivalent concentration of bitter taste, sensory evaluation, mixed amino acids (Example 29); type: in vivo, human; settings: 2% mixed amino acids; addition: Derivative 2 10 ppm, Glycyrrhizin 250 ppm, Sucrose 50000 ppm; no addition 0.105
Description: With respect to the solution produced by adding derivative 1 (the product of the present invention), or adding nothing (no addition; the reference product) in the concentration shown in the following table 4 to the amino acid solution (2% solution of arginine by weight), the sensory evaluation was performed (using 10 panelists), and the equivalent concentration of bitter taste was determined. The results were shown in the table 4, wherein the equivalent concentration of bitter taste was shown in the concentration of aqueous solution of anhydrous caffeine which is a substance of bitter taste.
With respect to the solution produced by adding derivative 2, Glycyrrhizin or sucrose (the product of the present invention), or adding nothing (no addition; the-reference product) to 2% (by weight) solution of the mixed amino acids (leucine:valine:isoleucine=1:0.5:0.5 by weight), the sensory evaluation was performed (using 10 panelists), and the equivalent concentration of bitter taste was determined in the same way as that described in Example 28, and shown in the table 5.

[6] = cited from earlier work

| Compound | Amount equivalent to PSE 10% [1] | Amount equivalent to PSE 10% [2] | Similarity index [3] | Similarity index [4] | Equivalent concentration of bitter taste [5] | magnification of sweetness intensity (numerical values in brackets) ([6]; values used for calculation in Example 17, sucrose = 1) | magnification used for the sweetness intensity of the another sweetener with a high intense sweetness ([6]; values used for calculation in Example 5) |
| --- | --- | --- | --- | --- | --- | --- | --- |
| COC(=O)[C@H](Cc1ccccc1)NC(=O)[C@H](CC(=O)O)NCCCc1ccc(OC)cc1O [Derivative 7, N-[N-[3-(2-hydroxy-4-methoxyphenyl)propyl]-L-α-aspartyl]-L-phenylalanine 1-methyl ester] | 9.0 mg/1000 ml | 9.4 mg/1000 ml | 0.86 | 0.90 |  |  |  |
| OC[C@H]1O[C@@](CO)(O[C@H]2O[C@H](CO)[C@@H](O)[C@H](O)[C@H]2O)[C@@H](O)[C@@H]1O [Sucrose] |  |  |  | 0 | 0.067 g/100 g | 1 |  |
| CC1(C)[C@@H](O[C@H]2O[C@H](C(=O)O)[C@@H](O)[C@H](O)[C@H]2O[C@@H]2O[C@H](C(=O)O)[C@@H](O)[C@H](O)[C@H]2O)CC[C@]2(C)[C@H]3C(=O)C=C4[C@@H]5C[C@@](C)(C(=O)O)CC[C@]5(C)CC[C@@]4(C)[C@]3(C)CC[C@@H]12 [Glycyrrhizin] |  |  |  |  | 0.105 g/100 g |  | 170 times |
| COC(=O)[C@H](Cc1ccccc1)NC(=O)[C@H](CC(=O)O)NCCC(C)(C)c1ccc(OC)cc1 [Derivative 5, N-[N-[3-(4-methoxyphenyl)-3-methylbutyl] -L-α-aspartyl] -L-phenylalanine 1-methyl ester] | 11.9 mg/1000 ml | 12.5 mg/1000 ml | 1.38 | 1.34 |  |  |  |
| COC(=O)[C@H](Cc1ccccc1)NC(=O)[C@H](CC(=O)O)NCCC(C)(C)c1ccc(OC)c(O)c1 [Derivative 3, N-[N-[3-(3-hydroxy-4-methoxyphenyl)-3-methylbutyl]-L-α-aspartyl]-L-phenylalanine 1-methyl ester] | 2.3 mg/1000 ml | 2.7 mg/1000 ml | 1.04 | 1.11 |  |  |  |
| COC(=O)[C@H](Cc1ccccc1)NC(=O)[C@H](CC(=O)O)NCCCc1ccc(O)cc1O [Derivative 9, N-[N-[3-(2,4-dihydroxyphenyl)propyl]-L-α-aspartyl]-L-phenylalanine 1-methyl ester] | 12.5 mg/1000 ml | 13.3 mg/1000 ml | 0.77 | 1.00 |  |  |  |
